Earlier results, collected in patent US9592699B2, “Dampening fluid for digital lithographic printing” (Xerox Corporation, priority 2011, dated 2017).

Tests used:
[1] = not given; remark: listed apart in the source
[2] = not given; remark: listed apart in the source
[3] = not given; remark: listed apart in the source
[4] = not given; remark: listed apart in the source

| Structure (SMILES) | Surface Tension at 25° C. | Vapor Pressure at 25° C. [1] | Kinematic Viscosity at 25° C. [2] | Heat of Vaporization at boiling point [3] | Solubility in Water [4] | surface tension | kinematic viscosity ([2]; 1 mm^2/sec) |
| --- | --- | --- | --- | --- | --- | --- | --- |
| C[Si](C)(C)O[Si](C)(C)C [(II-a), hexamethyldisiloxane] | 15.9 dynes/cm | 35 mmHg | 0.65 cSt | 200.8 kJ/kg | – | – | – |
| C[Si]1(C)O[Si](C)(C)O[Si](C)(C)O[Si](C)(C)O1 [(III-a), octamethylcyclotetrasiloxane] | 18.4 dynes/cm | 1.5 mmHg | 2.3 cSt | 133 kJ/kg | – | – | – |
| C[Si]1(C)O[Si](C)(C)O[Si](C)(C)O[Si](C)(C)O[Si](C)(C)O1 [(III-b), decamethylcyclopentasiloxane] | 18.0 dynes/cm | 1 mmHg | 3.9 cSt | 157 kJ/kg | – | – | – |
| C[Si](C)(C)O[Si](C)(O[Si](C)(C)C)O[Si](C)(C)C [(IV-a), methyltris(trimethylsiloxy)silane] | 16.8 dynes/cm | <10 mmHg | 1.5 cSt | – | – | – | – |
| COC(F)(C(F)(F)C(F)(F)F)C(F)(C(F)(F)F)C(F)(F)F (centres unmarked) [(I-a), 1,1,1,2,2,3,4,5,5,5-decafluoro-3-methoxy-4-(trifluoromethyl)pentane] | 15 dynes/cm | 44.9 mmHg | 0.71 cSt | 101.7 kJ/kg | – | – | – |
| CC(OC(F)(F)C(F)C(F)(F)F)C(F)(F)C(F)C(F)(F)F (centres unmarked) [(I-c), 1,1,1,2,3,3-Hexafluoro-4-(1,1,2,3,3,3-hexafluoropropoxy)pentane] | 17.7 dynes/cm | – | 1.07 cSt | 115.6 kJ/kg | <10 ppm | – | – |
| C[Si](C)(C)O[Si](C)(C)O[Si](C)(C)C [(II-b), octamethyltrisiloxane] | 17.4 dynes/cm | 4 mmHg | 1 cSt | 158 kJ/kg | – | – | – |
| O [Water, reference compound] | 72 dynes/cm | – | 1 cSt | – | – | around 70 dynes/cm | about 1 centiStoke |
| CCOC(F)(C(F)(F)C(F)(F)C(F)(F)F)C(F)(C(F)(F)F)C(F)(F)F (centres unmarked) [(I-b), 3-ethoxy-1,1,1,2,3,4,4,5,5,6,6,6-dodecafluoro-2-(trifluoromethyl)hexane] | 16.2 dynes/cm | – | 0.77 cSt | 88.5 kJ/kg | – | – | – |
| COC(F)(F)C(F)(F)C(F)(F)F [(I-f), 1-methoxyheptafluoropropane] | 12.4 dynes/cm | 484.5 mmHg | 0.32 cSt | 142 kJ/kg | – | – | – |
